In patent US10336732B2, “1-heterocyclyl isochromanyl compounds and analogs for treating CNS disorders” (Sunovion Pharmaceuticals Inc., priority 2015, dated 2019):

molecular target: T1, κ (KOP) (Rattus norvegicus, UniProt P34975); assay: In vitro radioligand binding assay, κ (KOP), [3H]U 69593; conditions: rat recombinant (CHO cells)
T1 construct: expressed in transfected cells; host or cells: CHO cells
Protocol: Certain compounds were tested by in vitro binding assays using standard procedures. […] These receptors and assays are well known to those skilled in the art, as exemplified by the following: Abramovitz, M. et al. (2000), Biochem. Biophys. Acta., 1483: 285-293 (EP4, IP (PGI2)); Aharony, D. et al. (1993), Mol. Pharmacol., 44: 356-363 (NK2); Ardati, A. et al. (1997), Mol. Pharmacol., 51: 816-824 (NOP (ORL1)); Bignon, E. et al. (1999), J. Pharmacol. Exp. Ther. 289: 742-751 (CCK1 (CCKA)); Bloomquist, B. T. et al. (1998), Biochem. Biophys. Res. Commun., 243: 474-479 (GAL2); Brockhaus, M. et al. (1990), Proc. Natl. Acad. Sci. U.S.A., 87: 3127-3131 (TNF-α); Brown, G. B. (1986), J. Neurosci., 6: 2064-2070 (Na+ channel (site 2)); Buchan, K. W. et al. (1994), Brit. J. Pharmacol., 112: 1251-1257 (ETA); Cesura, A. M. et al. (1990), Mol. Pharmacol., 37: 358-366 (MAO-A); Choi, D. S. et al. (1994), FEBS Lett., 352: 393-399 (5-HT2B); Clark, A. F. et al. (1996), Invest. Ophtalmol. Vis. Sci., 37: 805-813 (GR); Couvineau, A. et al. (1985), Biochem. J., 231: 139-143 (VPAC1 (VIP1)); Dorje, F. et al. (1991), J. Pharmacol. Exp. Ther., 256: 727-733 (M1, M2, M3, M4); Ferry, G. et al. (2001), Eur. J. Pharmacol., 417: 77-89 (PPARγ); Fuchs, S. et al. (2001), Mol. Med., 7: 115-124 (ETB); Fuhlendorff, J. et al. (1990), Proc. Natl. Acad. Sci. U.S.A., 87: 182-186 (Y2); Ganapathy M E. et al. (1999), J. Pharmacol. Exp. Ther., 289: 251-260 (sigma (non-selective)); Gopalakrishnan, M. et al. (1996), J. Pharmacol. Exp. Ther., 276: 289-297 (N neuronal α4β2); Greengrass, P. and Bremner, R. (1979), Eur. J. Pharmacol., 55: 323-326 (α1 (non-selective)); Grandy, D. K. et al. (1989), Proc. Natl. Acad. Sci. U.S.A., 86: 9762-9766 (D25); Guard, S. et al. (1993), Eur. J. Pharmacol., 240:177-184 (BB (non-selective)); Heuillet, E. et al. (1993), J. Neurochem., 60: 868-876 (NK1, P2X); Hope, A. G. et al. (1996), Brit. […]

T1 sequence (P34975 whole entry): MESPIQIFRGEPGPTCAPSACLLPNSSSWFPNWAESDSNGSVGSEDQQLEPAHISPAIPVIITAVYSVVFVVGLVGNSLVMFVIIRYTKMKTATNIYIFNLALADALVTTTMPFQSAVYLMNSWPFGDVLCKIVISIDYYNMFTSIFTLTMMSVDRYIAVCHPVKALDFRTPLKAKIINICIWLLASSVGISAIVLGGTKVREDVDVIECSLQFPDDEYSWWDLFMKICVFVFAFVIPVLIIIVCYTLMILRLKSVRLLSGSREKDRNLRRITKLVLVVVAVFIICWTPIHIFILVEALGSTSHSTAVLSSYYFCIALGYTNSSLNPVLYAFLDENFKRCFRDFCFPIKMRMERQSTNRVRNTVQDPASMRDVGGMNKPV

SMILES | κ (KOP) percent inhibition of specific binding [%]
Clc1ccc2c(c1)[C@H]([C@@H]1CCCN1)OCC2 [Compound I-29, (S)-2-((R)-7-chloroisochroman-1-yl)pyrrolidine] | 89
Fc1cccc2c1CCO[C@@H]2[C@@H]1CCN1 [Compound I-94, (S)-2-((S)-5-fluoroisochroman-1-yl)azetidine] | 67
Fc1ccc2c(c1)[C@H]([C@@H]1CCCN1)OCC2 [Compound I-5, (2S)-2-((R)-7-fluoroisochroman-1-yl)pyrrolidine] | 71
